Our source for the melting point values is patent US6579882B2, “Cell adhesion-inhibiting antiinflammatory compounds” (Abbott Laboratories, priority 1998, dated 2003).

Structures are written as SMILES.

For `O=C(NCCCl)c1cc2c(Oc3ccc(Cl)cc3)cncc2s1`, the melting point – broadly, the temperature, or range, at which the solid turns liquid – is 60 to 62 °C (dec.). The value for `Clc1ccc(Oc2cncc3sc(-c4ncon4)cc23)cc1` (hydrate or solvate) [Example 287, 4-(4-Chlorophenoxy)-2-(1,2,4-oxadiazol-3-yl)thieno[2,3-c]pyridine] was 151 to 152 °C; that for `Nc1nc(-c2cc3c(Oc4ccc(Cl)cc4)cncc3s2)no1` (hydrate or solvate) [Example 289, 3-[4-(4-Chlorophenoxy)thieno[2,3-c]pyridin-2-yl]-1,2,4-oxadiazol-5-amine] was 268 to 270 °C; that for `CCc1cc2c(Sc3ccc(C)cc3)ncnc2s1` [Example 2, 6-ethyl-4-[(4-methylphenyl)thio]thieno[2,3-d]pyrimidine] was 56 to 58 °C. In the case of `CCc1cc2c(Sc3ccccn3)ncnc2s1` [Example 3, 6-ethyl-4-(2-pyridinylthio)thieno[2,3-d]pyrimidine] it was 76.5 to 79 °C; in that of `CCc1cc2c(SCc3ccccc3)ncnc2s1` [Example 5, 6-ethyl-4-[(phenylmethyl)thio]thieno[2,3-d]pyrimidine], 54 to 60 °C.

`CCc1cc2c(Sc3nnc(C)s3)ncnc2s1` [Example 6, 6-ethyl-4-[(5-methyl-1,3,4-thiadiazol-2-yl)thio]thieno[2,3-d]pyrimidine] registered a melting point of 132 to 135 °C. The value for `CCOC(=O)C1(CC)Cc2c(Sc3ccc(C)cc3)ncnc2S1` (stereo not drawn) [Example 7, ethyl 6-ethyl-4-[(4-methylphenyl)thio]thieno[2,3-d]pyrimidine-6-carboxylate] was 87.5 to 90 °C. For the molecule `CCc1cc2c(Nc3nnc(C)s3)ncnc2s1` [Example 9, 6-ethyl-N-(5-methyl-1,3,4-thiadiazol-2-yl)thieno[2,3-d]pyrimidin-4-amine], the melting point is 277 to 280 °C. The value for `Cc1ccc(Sc2ncnc3c(C)csc23)cc1` [Example 11, 7-methyl-4-[(4-methylphenyl)thio]thieno[3,2-d]pyrimidine] was 103 to 107 °C; that for `CSc1nnc(Sc2ncnc3c(C)csc23)s1` [Example 13, 7-methyl-4-[[5-(methylthio)-1,3,4-thiadiazol-2-yl]thio]thieno[3,2-d]pyrimidine] was 163 to 166 °C. As to `Cc1csc2c(Sc3nnc(N)s3)ncnc12` [Example 14, 4-[(5-amino-1,3,4-thiadiazol-2-yl)thio]-7-methylthieno[3,2-d]pyrimidine], the melting point lay within 221 to 223 °C. Turning to `CON(C)C(=O)c1cc2c(Sc3ccc(C)cc3)cncc2s1` [Example 22, N-methoxy-N-methyl-4-[(4-methylphenyl)thio]thieno[2,3-c]pyridine-2-carboxamide], the melting point lay within 103 to 107 °C. In the case of `CONC(=O)c1cc2c(Sc3ccc(C)cc3)cncc2s1` [Example 23, N-methoxy-4-[(4-methylphenyl)thio]thieno[2,3-c]pyridine-2-carboxamide] it was 200 to 203 °C.

With `Cc1ccc(Sc2cncc3sc(C(=O)Nc4ccc(Cl)cc4)cc23)cc1` [Example 24, N-(4-chlorophenyl)-4-[(4-methylphenyl)thio]thieno[2,3-c]pyridine-2-carboxamide], the melting point was in the range of 208 to 211 °C. In the case of `CON=Cc1cc2c(Sc3ccc(C)cc3)cncc2s1` [Example 26, 4-[(4-methylphenyl)thio]thieno[2,3-c]pyridine-2-carboxaldehyde, O-methyloxime] it was 95 to 98 °C; in that of `Cc1ccc(Sc2cncc3sc(C=NOCc4ccccc4)cc23)cc1` [Example 27, 4-[(4-methylphenyl)thio]thieno[2,3-c]pyridine-2-carboxaldehyde, O-(phenylmethyl)oxime], 127 to 133 °C; in that of `Cc1ccc(Sc2cncc3sc(C=NOCC(=O)O)cc23)cc1` [Example 28, 2-[[[4-[(4-methylphenyl)thio]thieno[2,3-c]pyridin-2-ylmethylene]amino]oxy]acetic acid], 227 to 230 °C.
